Test results reported in ChEMBL document CHEMBL4507297, “Data for DCP probe PF-04457845” (2021).

Key:
[1] = target: Mitogen-activated protein kinase 3 (Homo sapiens) (UniProt P27361); conditions: Compound concentration 1000.0 nM
[2] = target: Bone morphogenetic protein receptor type-1B (Homo sapiens) (UniProt O00238); conditions: Compound concentration 1000.0 nM
[3] = target: Death-associated protein kinase 3 (Homo sapiens) (UniProt O43293); conditions: Compound concentration 1000.0 nM
[4] = test system: Epidermal growth factor receptor (Homo sapiens), P00533 [UNDEFINED MUTATION]; conditions: Compound concentration 1000.0 nM
[5] = target: Cyclin-dependent kinase 2 (Homo sapiens) (UniProt P24941); conditions: Compound concentration 1000.0 nM
[6] = target: Serine/threonine-protein kinase RIO1 (Homo sapiens) (UniProt Q9BRS2); conditions: Compound concentration 1000.0 nM
[7] = target: Serine/threonine-protein kinase DCLK3 (Homo sapiens) (UniProt Q9C098); conditions: Compound concentration 1000.0 nM
[8] = target: Atypical kinase COQ8B, mitochondrial (Homo sapiens) (UniProt Q96D53); conditions: Compound concentration 1000.0 nM
[9] = test system: Epidermal growth factor receptor (Homo sapiens), P00533 [L861Q]; conditions: Compound concentration 1000.0 nM
[10] = target: Tyrosine-protein kinase BTK (Homo sapiens) (UniProt Q06187); conditions: Compound concentration 1000.0 nM
[11] = test system: Tyrosine-protein kinase ABL1 (Homo sapiens), P00519 [M351T]; conditions: Compound concentration 1000.0 nM
[12] = test system: Epidermal growth factor receptor (Homo sapiens), P00533 [L858R,T790M]; conditions: Compound concentration 1000.0 nM
[13] = target: Serine/threonine-protein kinase RIO2 (Homo sapiens) (UniProt Q9BVS4); conditions: Compound concentration 1000.0 nM
Sequence of Serine/threonine-protein kinase RIO2 (Homo sapiens) (Q9BVS4 whole entry, looked up): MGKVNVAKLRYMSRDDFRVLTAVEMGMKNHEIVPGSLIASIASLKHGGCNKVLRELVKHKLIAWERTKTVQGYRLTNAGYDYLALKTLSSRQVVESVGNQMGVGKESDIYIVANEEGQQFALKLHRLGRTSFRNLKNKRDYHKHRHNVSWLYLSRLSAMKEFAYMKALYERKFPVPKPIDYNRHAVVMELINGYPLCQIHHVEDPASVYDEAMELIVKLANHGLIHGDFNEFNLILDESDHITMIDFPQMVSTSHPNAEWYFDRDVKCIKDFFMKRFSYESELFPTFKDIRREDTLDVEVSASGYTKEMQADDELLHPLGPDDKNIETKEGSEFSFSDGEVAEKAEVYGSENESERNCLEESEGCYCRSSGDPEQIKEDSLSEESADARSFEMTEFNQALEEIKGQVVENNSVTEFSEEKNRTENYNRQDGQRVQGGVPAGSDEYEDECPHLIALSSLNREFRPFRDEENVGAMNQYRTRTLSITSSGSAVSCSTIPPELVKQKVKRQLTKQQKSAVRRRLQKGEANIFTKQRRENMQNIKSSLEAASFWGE

[14] = target: Alpha-1B adrenergic receptor (Homo sapiens) (UniProt P35368); conditions: Compound concentration 10.0 uM
[15] = target: Serine/threonine-protein kinase N2 (Homo sapiens) (UniProt Q16513); conditions: Compound concentration 1000.0 nM
[16] = target: NT-3 growth factor receptor (Homo sapiens) (UniProt Q16288); conditions: Compound concentration 1000.0 nM
Sequence of NT-3 growth factor receptor (Homo sapiens) (Q16288 32-839 limits assumed): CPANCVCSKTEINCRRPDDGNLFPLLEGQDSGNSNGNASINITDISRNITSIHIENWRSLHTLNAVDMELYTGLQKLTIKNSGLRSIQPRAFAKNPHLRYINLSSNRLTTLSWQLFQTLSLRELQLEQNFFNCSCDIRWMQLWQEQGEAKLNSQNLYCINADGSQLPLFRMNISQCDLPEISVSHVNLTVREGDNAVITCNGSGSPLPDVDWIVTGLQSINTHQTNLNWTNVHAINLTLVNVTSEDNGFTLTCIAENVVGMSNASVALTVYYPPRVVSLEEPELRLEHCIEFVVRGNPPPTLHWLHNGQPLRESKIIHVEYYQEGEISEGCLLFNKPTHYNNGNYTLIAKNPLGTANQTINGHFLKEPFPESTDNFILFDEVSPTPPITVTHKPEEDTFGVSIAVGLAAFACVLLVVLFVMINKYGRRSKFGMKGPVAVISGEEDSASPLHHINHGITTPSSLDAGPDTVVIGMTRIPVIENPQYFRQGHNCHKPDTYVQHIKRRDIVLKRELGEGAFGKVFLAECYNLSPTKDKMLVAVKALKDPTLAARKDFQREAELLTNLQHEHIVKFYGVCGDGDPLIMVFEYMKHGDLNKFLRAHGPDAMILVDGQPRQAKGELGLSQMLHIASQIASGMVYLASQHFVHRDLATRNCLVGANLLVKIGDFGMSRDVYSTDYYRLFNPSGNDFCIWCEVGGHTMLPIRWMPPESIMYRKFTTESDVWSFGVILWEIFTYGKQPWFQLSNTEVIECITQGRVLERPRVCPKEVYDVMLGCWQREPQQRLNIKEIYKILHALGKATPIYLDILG

[17] = target: Cyclin-dependent kinase 5 (Homo sapiens) (UniProt Q00535); conditions: Compound concentration 1000.0 nM
[18] = target: Myosin light chain kinase 2, skeletal/cardiac muscle (Homo sapiens) (UniProt Q9H1R3); conditions: Compound concentration 1000.0 nM
Sequence of Myosin light chain kinase 2, skeletal/cardiac muscle (Homo sapiens) (Q9H1R3 whole entry, canonical isoform): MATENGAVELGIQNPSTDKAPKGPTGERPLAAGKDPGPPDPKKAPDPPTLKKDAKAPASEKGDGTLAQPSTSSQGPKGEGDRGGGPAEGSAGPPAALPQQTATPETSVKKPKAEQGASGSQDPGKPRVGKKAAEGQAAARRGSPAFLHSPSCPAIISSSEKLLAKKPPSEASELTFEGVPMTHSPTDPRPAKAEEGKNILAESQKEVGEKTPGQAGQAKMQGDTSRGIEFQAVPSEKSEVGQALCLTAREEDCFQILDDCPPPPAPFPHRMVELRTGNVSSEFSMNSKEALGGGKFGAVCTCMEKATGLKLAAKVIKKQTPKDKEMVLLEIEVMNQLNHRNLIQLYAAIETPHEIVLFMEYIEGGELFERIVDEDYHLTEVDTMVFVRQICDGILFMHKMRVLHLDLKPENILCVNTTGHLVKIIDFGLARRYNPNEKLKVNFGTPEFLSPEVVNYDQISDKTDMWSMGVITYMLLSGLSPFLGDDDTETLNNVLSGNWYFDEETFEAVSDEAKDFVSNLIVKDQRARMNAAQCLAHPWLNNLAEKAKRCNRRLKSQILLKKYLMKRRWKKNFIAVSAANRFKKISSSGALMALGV

[19] = target: Phosphorylase b kinase regulatory subunit alpha, liver isoform (Homo sapiens) (UniProt P46019); conditions: Compound concentration 1000.0 nM
[20] = target: T1, 5-hydroxytryptamine receptor 3A (Homo sapiens) (UniProt P46098); conditions: Compound concentration 10.0 uM
T1 sequence (whole entry): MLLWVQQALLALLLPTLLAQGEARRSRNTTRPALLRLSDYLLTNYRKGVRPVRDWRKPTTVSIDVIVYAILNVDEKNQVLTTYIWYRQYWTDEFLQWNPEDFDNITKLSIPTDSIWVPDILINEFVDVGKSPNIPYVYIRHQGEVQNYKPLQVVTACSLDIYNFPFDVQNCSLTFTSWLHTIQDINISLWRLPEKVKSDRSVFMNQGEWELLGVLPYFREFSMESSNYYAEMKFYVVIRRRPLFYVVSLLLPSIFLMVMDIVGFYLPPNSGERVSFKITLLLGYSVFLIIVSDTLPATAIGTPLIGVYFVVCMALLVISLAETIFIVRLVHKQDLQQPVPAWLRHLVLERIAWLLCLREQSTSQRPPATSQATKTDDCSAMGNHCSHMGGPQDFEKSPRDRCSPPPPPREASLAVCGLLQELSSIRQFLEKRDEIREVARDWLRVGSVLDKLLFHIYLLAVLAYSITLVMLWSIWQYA

[21] = target: Mitogen-activated protein kinase kinase kinase 12 (Homo sapiens) (UniProt Q12852); conditions: Compound concentration 1000.0 nM
[22] = target: Serine/threonine-protein kinase Nek4 (Homo sapiens) (UniProt P51957); conditions: Compound concentration 1000.0 nM
Sequence of Serine/threonine-protein kinase Nek4 (Homo sapiens) (P51957 whole entry, looked up): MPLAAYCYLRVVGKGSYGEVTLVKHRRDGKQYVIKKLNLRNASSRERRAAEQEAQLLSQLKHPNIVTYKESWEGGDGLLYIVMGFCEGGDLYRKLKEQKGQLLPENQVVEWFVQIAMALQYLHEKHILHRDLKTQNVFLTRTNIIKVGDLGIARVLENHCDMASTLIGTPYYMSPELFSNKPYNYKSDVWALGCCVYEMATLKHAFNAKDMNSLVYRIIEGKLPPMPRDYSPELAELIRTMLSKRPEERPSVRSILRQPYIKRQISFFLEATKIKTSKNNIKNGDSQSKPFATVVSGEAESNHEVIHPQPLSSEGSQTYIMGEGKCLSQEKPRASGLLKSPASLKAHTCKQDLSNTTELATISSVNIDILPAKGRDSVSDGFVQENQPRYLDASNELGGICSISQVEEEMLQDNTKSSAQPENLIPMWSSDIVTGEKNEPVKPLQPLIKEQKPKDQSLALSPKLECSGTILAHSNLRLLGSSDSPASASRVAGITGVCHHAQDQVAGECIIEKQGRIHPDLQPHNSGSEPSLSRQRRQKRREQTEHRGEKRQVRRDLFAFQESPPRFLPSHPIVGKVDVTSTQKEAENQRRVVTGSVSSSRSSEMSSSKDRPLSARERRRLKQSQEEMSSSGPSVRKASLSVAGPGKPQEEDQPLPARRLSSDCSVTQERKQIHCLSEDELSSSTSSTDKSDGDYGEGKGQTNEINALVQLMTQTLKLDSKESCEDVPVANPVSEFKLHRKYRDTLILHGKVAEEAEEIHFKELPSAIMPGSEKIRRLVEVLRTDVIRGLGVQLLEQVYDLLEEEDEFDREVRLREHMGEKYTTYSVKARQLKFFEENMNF

[23] = test system: Mast/stem cell growth factor receptor Kit (Homo sapiens), P10721 [D816H]; conditions: Compound concentration 1000.0 nM
[24] = target: Serine/threonine-protein kinase tousled-like 1 (Homo sapiens) (UniProt Q9UKI8); conditions: Compound concentration 1000.0 nM
[25] = target: Cyclin-dependent kinase 18 (Homo sapiens) (UniProt Q07002); conditions: Compound concentration 1000.0 nM
[26] = target: ALK tyrosine kinase receptor (Homo sapiens) (UniProt Q9UM73); conditions: Compound concentration 1000.0 nM
[27] = target: Interleukin-1 receptor-associated kinase 3 (Homo sapiens) (UniProt Q9Y616); conditions: Compound concentration 1000.0 nM
[28] = test system: Tyrosine-protein kinase ABL1 (Homo sapiens), P00519 [Q252H]; conditions: Compound concentration 1000.0 nM
[29] = target: Serine/threonine-protein kinase MARK2 (Homo sapiens) (UniProt Q7KZI7); conditions: Compound concentration 1000.0 nM
[30] = target: 5-hydroxytryptamine receptor 2A (Homo sapiens, UniProt P28223); conditions: Compound concentration 10.0 uM
[31] = target: Dual specificity testis-specific protein kinase 1 (Homo sapiens) (UniProt Q15569); conditions: Compound concentration 1000.0 nM
[32] = target: Casein kinase I isoform epsilon (Homo sapiens) (UniProt P49674); conditions: Compound concentration 1000.0 nM
[33] = target: Sigma intracellular receptor 2 (Homo sapiens, UniProt Q5BJF2); experiment: GPCRScan assay: inhibition of Sigma 2; set-up: radioligand conc. used [nm] 5.0, parental cells HEKT
Sequence of Sigma intracellular receptor 2 (Q5BJF2 whole entry): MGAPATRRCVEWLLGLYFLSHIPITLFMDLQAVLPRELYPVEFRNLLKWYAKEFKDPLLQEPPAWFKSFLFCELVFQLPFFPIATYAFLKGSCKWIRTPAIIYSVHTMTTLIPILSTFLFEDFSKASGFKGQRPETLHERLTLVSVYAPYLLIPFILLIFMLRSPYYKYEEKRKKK

[34] = test system: Proto-oncogene tyrosine-protein kinase receptor Ret (Homo sapiens), P07949 [M918T]; conditions: Compound concentration 1000.0 nM
Sequence of Proto-oncogene tyrosine-protein kinase receptor Ret (Homo sapiens), P07949 [M918T] (P07949 whole entry M918T): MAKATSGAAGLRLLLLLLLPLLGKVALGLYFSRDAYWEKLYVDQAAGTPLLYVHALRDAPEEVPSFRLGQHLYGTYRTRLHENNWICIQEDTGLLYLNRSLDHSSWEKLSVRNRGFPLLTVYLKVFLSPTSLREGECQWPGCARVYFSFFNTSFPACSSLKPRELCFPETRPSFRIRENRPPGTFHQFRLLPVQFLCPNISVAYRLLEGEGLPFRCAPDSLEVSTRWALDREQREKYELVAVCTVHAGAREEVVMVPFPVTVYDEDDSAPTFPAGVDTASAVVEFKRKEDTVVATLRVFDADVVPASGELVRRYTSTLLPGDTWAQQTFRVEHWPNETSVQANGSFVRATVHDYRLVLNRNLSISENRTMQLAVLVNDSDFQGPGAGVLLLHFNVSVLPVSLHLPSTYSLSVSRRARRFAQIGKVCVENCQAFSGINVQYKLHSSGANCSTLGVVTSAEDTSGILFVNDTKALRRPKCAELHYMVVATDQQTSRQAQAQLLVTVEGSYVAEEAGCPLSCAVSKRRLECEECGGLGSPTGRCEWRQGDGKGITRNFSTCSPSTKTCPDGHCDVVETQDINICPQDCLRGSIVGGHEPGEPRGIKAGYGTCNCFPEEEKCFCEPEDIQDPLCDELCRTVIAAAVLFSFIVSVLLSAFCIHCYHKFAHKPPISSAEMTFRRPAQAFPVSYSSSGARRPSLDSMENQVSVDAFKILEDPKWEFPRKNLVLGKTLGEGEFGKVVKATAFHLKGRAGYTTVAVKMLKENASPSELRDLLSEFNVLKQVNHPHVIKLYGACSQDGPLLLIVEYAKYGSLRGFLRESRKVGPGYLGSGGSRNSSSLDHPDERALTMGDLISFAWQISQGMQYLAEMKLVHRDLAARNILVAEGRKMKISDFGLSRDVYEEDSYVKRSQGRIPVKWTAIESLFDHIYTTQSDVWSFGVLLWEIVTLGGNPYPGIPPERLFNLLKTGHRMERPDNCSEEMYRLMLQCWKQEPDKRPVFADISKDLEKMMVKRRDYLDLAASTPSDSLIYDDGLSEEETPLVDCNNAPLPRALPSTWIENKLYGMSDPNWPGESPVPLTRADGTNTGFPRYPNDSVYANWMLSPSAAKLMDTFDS

[35] = target: Serine/threonine-protein kinase Nek9 (Homo sapiens) (UniProt Q8TD19); conditions: Compound concentration 1000.0 nM
Sequence of Serine/threonine-protein kinase Nek9 (Homo sapiens) (Q8TD19 whole entry): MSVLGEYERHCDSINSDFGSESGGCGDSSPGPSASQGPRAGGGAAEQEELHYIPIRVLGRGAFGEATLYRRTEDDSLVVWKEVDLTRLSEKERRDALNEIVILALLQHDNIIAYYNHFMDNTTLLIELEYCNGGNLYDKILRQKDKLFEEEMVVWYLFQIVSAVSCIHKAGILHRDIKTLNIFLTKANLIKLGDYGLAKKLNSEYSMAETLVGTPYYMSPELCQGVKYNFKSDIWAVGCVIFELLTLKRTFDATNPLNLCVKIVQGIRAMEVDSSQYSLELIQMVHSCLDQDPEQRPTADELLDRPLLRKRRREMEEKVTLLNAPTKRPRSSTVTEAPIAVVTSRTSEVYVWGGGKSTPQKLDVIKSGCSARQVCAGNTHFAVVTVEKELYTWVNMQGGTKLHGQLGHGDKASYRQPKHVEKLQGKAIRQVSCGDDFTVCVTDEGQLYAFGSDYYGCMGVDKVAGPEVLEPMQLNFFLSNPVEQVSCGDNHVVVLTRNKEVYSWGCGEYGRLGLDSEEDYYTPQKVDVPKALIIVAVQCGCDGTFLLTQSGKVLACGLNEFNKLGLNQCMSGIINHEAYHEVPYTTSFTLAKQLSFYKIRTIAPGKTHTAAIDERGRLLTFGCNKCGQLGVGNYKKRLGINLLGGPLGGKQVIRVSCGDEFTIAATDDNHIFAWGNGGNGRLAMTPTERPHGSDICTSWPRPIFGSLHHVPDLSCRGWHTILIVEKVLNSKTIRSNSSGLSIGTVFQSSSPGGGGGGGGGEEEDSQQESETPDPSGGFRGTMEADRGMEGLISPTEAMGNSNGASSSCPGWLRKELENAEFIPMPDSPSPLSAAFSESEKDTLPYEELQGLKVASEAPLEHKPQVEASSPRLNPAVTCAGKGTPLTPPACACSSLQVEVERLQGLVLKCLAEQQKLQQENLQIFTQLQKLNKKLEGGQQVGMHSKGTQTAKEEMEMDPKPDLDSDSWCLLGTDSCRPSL

[36] = target: Glycogen synthase kinase-3 alpha (Homo sapiens) (UniProt P49840); conditions: Compound concentration 1000.0 nM
[37] = target: Mitogen-activated protein kinase 8 (Homo sapiens) (UniProt P45983); conditions: Compound concentration 1000.0 nM

| SMILES | residual activity [1] [%] | residual activity [2] [%] | residual activity [3] [%] | residual activity [4] [%] | residual activity [5] [%] | residual activity [6] [%] | residual activity [7] [%] | residual activity [8] [%] | residual activity [9] [%] | residual activity [10] [%] | residual activity [11] [%] | residual activity [12] [%] | residual activity [13] [%] | inhibition [14] [%] | residual activity [15] [%] | residual activity [16] [%] | residual activity [17] [%] | residual activity [18] [%] | residual activity [19] [%] | inhibition [20] [%] | further results |
| --- | --- | --- | --- | --- | --- | --- | --- | --- | --- | --- | --- | --- | --- | --- | --- | --- | --- | --- | --- | --- | --- |
| O=C(Nc1cccnn1)N1CC(C/C=C/c2cncc(Oc3ccc(C(F)(F)F)cn3)n2)C1 | 99 | 91 | 100 | 95 | 100 | 100 | 100 | 94 | 100 | 59 | 67 | 82 | 77 | 0.27 | 100 | 85 | 100 | 87 | 100 | -0.28 | residual activity [21]: 83%; residual activity [22]: 95%; residual activity [23]: 74%; residual activity [24]: 98%; residual activity [25]: 100%; residual activity [26]: 97%; residual activity [27]: 100%; residual activity [28]: 100%; residual activity [29]: 80%; inhibition [30]: -3.55%; residual activity [31]: 100%; residual activity [32]: 100%; Ki [33]: 8.41 µM; residual activity [34]: 96%; residual activity [35]: 100%; residual activity [36]: 92%; residual activity [37]: 75% |
| O=C(Nc1cccnn1)N1CCC(=Cc2cccc(Oc3ccc(C(F)(F)F)cn3)c2)CC1 | 100 | 88 | 79 | 100 | 100 | 100 | 85 | 81 | 84 | 100 | 99 | 99 | 100 | 0.4 | 100 | 100 | 92 | 88 | 88 | 10.7 | residual activity [21]: 100%; residual activity [22]: 98%; residual activity [23]: 100%; residual activity [24]: 100%; residual activity [25]: 76%; residual activity [26]: 100%; residual activity [27]: 86%; residual activity [28]: 75%; residual activity [29]: 100%; inhibition [30]: 82.9%; residual activity [31]: 91%; residual activity [32]: 100%; Ki [33]: 0.437 µM; residual activity [34]: 80%; residual activity [35]: 100%; residual activity [36]: 100%; residual activity [37]: 100% |
